How the values were obtained:
Type in all cases: in vivo, mouse
[1] = system: paraplegic mice (lumbar spinal cord circuitry for hindlimb locomotion); test: Hindlimb movement generation (LM/NLM) on a motor-driven treadmill in complete spinal cord transected mice; conditions: for induction of LM: some NLM were found; for mice in which a mixture of LM and NLM was induced: 7 animals/group
paraplegic mice [2] = test: Hindlimb movement generation in paraplegic mice, air-stepping and/or treadmill not separated; BBB and AOB scales; conditions: for induction of LM / induction of NLM: increasing doses, air-stepping and treadmill conditions, FIG. 13; for effect of 5-HT1A antagonist pretreatment on 8-OH-DPAT-induced LM: antagonist 2 mg/kg
Experimental: Animals and Treatment. We tested one hundred and ninety five (n=195) male and female adult CD1 and C57BL/6 mice weighing 30-40 grams prior to the study (Charles River Laboratory, St-Constant, Canada). […] Animals were spinalized 7 days prior to testing (exceptionally tested sometimes at 15 days post-spinalization, e.g., FIG. 17). A complete transection of the spinal cord was performed intervertebrally between the 9th and 10th vertebrae in isoflurane (2.5%) anesthetized animals. Complete spinalization was confirmed by 1) full paralysis of the hindlimbs, 2) post-mortem examination of the spinal cord microscopically and, in some cases, 3) staining transverse or sagittal spinal cord sections with luxol fast blue/cresyl violet for myelinated axons and nissl substance respectively. All mice received pre-operative care and post-operative care including lactate-Ringer's solution (2 ml/day, s.c.), analgesic (buprenorphine 0.2 mg/kg/day, s.c.) and antibiotic (baytril 5 mg/kg/day, s.c.). Bladders were emptied manually and animals were left in their cage without other interventions with food and water ad libitum until testing. Mice received a single injection (i.p.) of either 8-OHDPAT (5-HT1A/7); 5-CT (5-HT1A/7 agonist); buspirone (5-HT1A agonist); TFMPP (5-HT1B/2C agonist); quipazine (5-HT2B/2C); m-CPP (5-HT2B/2C agonist); SR-57227A (5-HT3) one week post-spinalization. […] The contribution of spinal 5-HT4/5/6 receptor activation to hindlimb movement generation in spinalized animals were not tested either because selective ligands are not available or because no significant expression levels have been found for these receptor subtypes in the mammalian spinal cord (see Schmidt and Jordan, Brain Res Bull 2000).
Hindlimb movement recording. Hindlimb movements were filmed (digital video camera 3 Com Home-connect, 30 frames/sec) immediately prior to injection and at fixed delays after injection in animals either suspended (air-stepping condition) or placed on a treadmill running at a speed of 8-10 cm/sec (treadmill condition). A harness was put around the torso and the waist either to completely suspend animals (air-stepping) or to maintain them in front of the camera on the treadmill (not weight support was provided). Animals were not stimulated otherwise. Locomotor-like movements were defined as rhythmic flexions and extensions occurring in both hindlimbs alternatively. Body weight support and plantar foot placement were facultative and therefore not required to be counted as locomotor-like (LM). In turn, non-locomotor movements (NLM) were defined as non-bilaterally alternating hindlimb movements most often including spasms, kicks, uncoordinated or unilateral movements, etc. In some cases, qualitative assessment methods were used to evaluate the level of induced hindlimb movements. The BBB locomotor scale (Basso, Bresnahan and Beattie, Exp Neurol 1996) and the AOB motor scale (Antri, Orsal and Barthe, Eur J Neurosci 2002) were also occasionally used.

[3] = system: paraplegic mice (lumbar spinal cord circuitry for hindlimb locomotion); test: Hindlimb movement generation (LM/NLM) on a motor-driven treadmill in complete spinal cord transected mice
Experimental: (§1) Animals and Treatment Thirty-two (n=32) male or female adult CD1 mice weighing 30-40 grams were tested prior to the study (Charles River Laboratory, St-Constant, Canada). The experiment was conducted in a Canadian Council on Animal Care approved facility in accordance with the CCAC Guide for Care and Use of Experimental Animals. Animals were spinalized 7-9 days prior to testing. A complete transection of the spinal cord was performed intervertebrally between the 9th and 10th vertebrae in isoflurane (2.5%) anesthetized animals. Complete spinalization was confirmed by 1) full paralysis of the hindlimbs, 2) post-mortem examination of the spinal cord microscopically and, in some cases, 3) staining transverse or sagittal spinal cord sections with luxol fast blue/cresyl violet for myelinated axons and nissl substance respectively. All mice received pre-operative care and post-operative care including lactate-Ringer's solution (2 ml/day, s.c.), analgesic (buprenorphine 0.2 mg/kg/day, s.c.) and antibiotic (baytril 5 mg/kg/day, s.c.). Bladders were emptied manually and animals were left in their cage without other interventions with food and water ad libitum until testing.
Hindlimb movement recording. Hindlimb movements were filmed (digital video camera 3 Com Home-connect, 30 frames/sec), 1) immediately prior to injection and, 2) at fixed delays after injection in animals placed on a treadmill running at a speed of 8-10 cm/sec (treadmill condition). A harness was put around the torso and the waist to maintain them in front of the camera on the treadmill (not weight support was provided). Animals were not stimulated otherwise. Hindlimb movements were assessed either as locomotor-like movements (LM) or non-locomotor movements (NLM) Locomotor-like movements were defined as rhythmic flexions and extensions occurring in both hindlimbs alternatively. Body weight support and plantar foot placement were facultative and therefore not required to be counted as locomotor-like (LM). In turn, non-locomotor movements (NLM) were defined as non-bilaterally alternating hindlimb movements most often including spasms, kicks, uncoordinated or unilateral movements, etc. Levels of weight supported movements and of plantar foot placements were assessed as either none, occasional, or frequent.
as §1, with “and Treatment. Twenty-nine (n=29)” for “and Treatment Thirty-two (n=32)”, “male and” for “male or”, “grams” for “grams were tested”, “spinalized 7” for “spinalized 7-9”, “(baytril” for “(baytril 5”
Hindlimb movement recording, Hindlimb movements were filmed (digital video camera 3 Com Home-connect, 30 frames/sec) immediately prior to injection and at fixed delays after injection in animals suspended (air-stepping condition) or placed on a treadmill running at a speed of 8-10 cm/sec (treadmill condition). A harness was put around the torso and the waist either to completely suspend animals (air-stepping) or to maintain them in front of the camera on the treadmill (not weight support was provided).

paraplegic mice [4] = test: Hindlimb movement generation in the air-stepping condition (suspended) in spinal cord transected mice
From the text: Animals and Treatment. Twenty-nine (n=29) male and female adult CD1 mice weighing 30-40 grams prior to the study (Charles River Laboratory, St-Constant, Canada). […] Animals were spinalized 7 days prior to testing. […] Bladders were emptied manually and animals were left in their cage without other interventions with food and water ad libitum until testing. […] A harness was put around the torso and the waist either to completely suspend animals (air-stepping) or to maintain them in front of the camera on the treadmill (not weight support was provided). Animals were not stimulated otherwise. Animals and Treatment. […] Bladders were emptied manually and animals were left in their cage without other interventions with food and water ad libitum until testing. Mice received a single injection (i.p.) of either 8-OHDPAT (5-HT1A/7); 5-CT (5-HT1A/7 agonist); buspirone (5-HT1A agonist); TFMPP (5-HT1B/2C agonist); quipazine (5-HT2B/2C); m-CPP (5-HT2B/2C agonist); SR-57227A (5-HT3) one week post-spinalization. […] Hindlimb movement recording. […] A harness was put around the torso and the waist either to completely suspend animals (air-stepping) or to maintain them in front of the camera on the treadmill (not weight support was provided). Animals were not stimulated otherwise. Locomotor-like movements were defined as rhythmic flexions and extensions occurring in both hindlimbs alternatively. Body weight support and plantar foot placement were facultative and therefore not required to be counted as locomotor-like (LM). In turn, non-locomotor movements (NLM) were defined as non-bilaterally alternating hindlimb movements most often including spasms, kicks, uncoordinated or unilateral movements, etc. In some cases, qualitative assessment methods were used to evaluate the level of induced hindlimb movements. The BBB locomotor scale (Basso, Bresnahan and Beattie, Exp Neurol 1996) and the AOB motor […], Orsal and Barthe, Eur J Neurosci 2002) were also occasionally used.

[5] = single injection 0.5-2.5 mg/kg, i.p., CD1 mice 6-7 days post-spinalization, treadmill
[6] = L-DOPA 40-100 mg/kg, treadmill, n=29
[7] = i.p. prior to 8-OH-DPAT, both strains

SMILES: CCCN(CCC)C1CCc2ccc(O)cc2C1 (stereo not drawn) [7-OH-DPAT]
- induction of LM [1, 5]: did not induce LM

SMILES: CCCN(CCC)C1CCc2cccc(O)c2C1 (stereo not drawn) [8-OH-DPAT, 8-hydroxy-2-(di-n-propylamino)tetralin]
- induction of hindlimb movements (paraplegic mice [2]; 8-OH-DPAT 1 mg/kg, i.p., CD1 and C57BI/6 mice seven days after transection): induced hindlimb alternated movements in most mice
- weight supported steps or plantar foot placements (paraplegic mice [2]; 8-OH-DPAT 1 mg/kg, i.p., seven days after transection): not found
- doses at which all-or-none-like effects (LM and NLM) start ([1]; 8-OH-DPAT i.p., spinal mice on a treadmill (FIG. 18), n=28): ≥ 1 mg/kg

SMILES: NC[C@@H]1O[C@H](c2ccccc2)Cc2c1ccc(O)c2O [A-68930]
- mice in which a mixture of LM and NLM was induced [1, 5]: 28%

SMILES: N[C@@H](Cc1ccc(O)c(O)c1)C(=O)O [L-DOPA, L-(−)-2-amino-3-(3,4-dihydroxyphenyl)propionic acid]
- weight bearing locomotor capabilities ([3]; L-DOPA 40-100 mg/kg, treadmill, all cases): no weight bearing locomotor capabilities
- LM per min (average) [3, 6]: 6.1±1.3 per min
- NLM per min (average) [3, 6]: 11.2±1.8 per min
- uneffective doses on treadmill ([3]; L-DOPA i.p. with benserazide (1:4), CD1 mice 7 days post-spinalization, treadmill 8-10 cm/sec): < 40 mg/kg
- time following injection at which hindlimb movements began ([3]; one mouse (FIG. 6): 40 mg/kg L-DOPA, treadmill): 20 min
- hindlimb movement generation in air-stepping (paraplegic mice [4]; 40 mg/kg L-DOPA, 1-week paraplegic mouse, 20 min post-injection (no effect either 30 or 45 min later)): No hindlimb movements
- hindlimb movement generation in air-stepping (paraplegic mice [4]; 80 mg/kg L-DOPA, 28 min after injection): No movements
- hindlimb movement generation in air-stepping (paraplegic mice [4]; 30-100 mg/kg L-DOPA i.p. with benserazide (1:4), CD1 mice 7 days post-spinalization): did not induce hindlimb movements

SMILES: Cc1cccc(C(=O)NCN2CCN(c3ccccc3C#N)CC2)c1 [PD168077]
- induction of LM [1, 5]: did not induce LM

SMILES: CC1CCN(CC[C@H]2CCCN2S(=O)(=O)c2cccc(O)c2)CC1 [SB269970]
- effect of 5-HT7 antagonist pretreatment on 8-OH-DPAT-induced movement frequencies, amplitudes and angular excursions (paraplegic mice [2]; SB269970 2-15 mg/kg, i.p. prior to 8-OH-DPAT, both strains): importantly reduced

SMILES: Oc1cc2c(c(Cl)c1O)CCNCC2c1ccccc1 (stereo not drawn) [SKF-81297]
- ACOS (averaged combined score = NLM+[LM×2]) [1, 5]: > 8
- mice in which a mixture of LM and NLM was induced [1, 5]: 71%

SMILES: Cl.NC1CCN(c2cccc(Cl)n2)CC1 [SR-57227A]
- locomotor-like movements per min on a treadmill ([3]; SR-57227A, treadmill, in some animals): approx. 2.5 per min
- type of hindlimb movements induced (paraplegic mice [2]; SR-57227A i.p., air-stepping, open-field or treadmill): can induce only NLM
- scores with the BBB and Antri motor scales (paraplegic mice [2]; SR-57227A, FIG. 16): very low scores
- score on Basso, Beattie and Bresnahan (1996) locomotor scale (paraplegic mice [2]; SR-57227A, FIG. 16A): Non-significant scores

SMILES: FC(F)(F)c1cccc(N2CCNCC2)c1 [TFMPP]
- induction of LM (paraplegic mice [2]; i.p.): not to induce LM
- induction of NLM (paraplegic mice [2]; i.p.): induced only NLM

SMILES: COc1ccccc1N1CCN(CC(C(=O)NC(C)(C)C)c2ccccc2)CC1 (stereo not drawn) [WAY100,135]
- effect of 5-HT1A antagonist pretreatment on 8-OH-DPAT-induced LM (paraplegic mice [2]; [7]): significantly reduced

SMILES: COc1ccccc1N1CCN(CCN(C(=O)C2CCCCC2)c2ccccn2)CC1 [WAY100,635]
- effect of 5-HT1A antagonist pretreatment on 8-OH-DPAT-induced LM (paraplegic mice [2]; [7]): significantly reduced

SMILES: CN1CCc2cccc3c2[C@H]1Cc1ccc(O)c(O)c1-3 [apomorphine, (R)-5,6,6a,7-tetrahydro-6-methyl-4H-dibenzo-[de,g]quinoline-10,11-diol]
- mice in which a mixture of LM and NLM was induced [1, 5]: 11%

SMILES: Clc1cccc(N2CCNCC2)c1 [m-CPP]
- induction of LM (paraplegic mice [2]; i.p.): not to induce LM
- induction of NLM (paraplegic mice [2]; i.p.): dose-dependent non-locomotor movements were found

SMILES: c1ccc2nc(N3CCNCC3)ccc2c1 [quipazine]
- doses inducing some rhythmic LM in air-stepping (paraplegic mice [4]; quipazine i.p., air-stepping condition, FIG. 14): above 0.8 mg/kg
- ineffective doses (paraplegic mice [4]; quipazine i.p., air-stepping, FIG. 14H): below 0.8 mg/kg
- times less LM than 8-OH-DPAT tested in similar conditions (paraplegic mice [2]; quipazine, FIG. 9 vs. FIG. 15): 2-3 times
- weight-supported stepping and plantar foot placement (paraplegic mice [2]; quipazine, air-stepping or treadmill 8-10 cm/sec): No weight-supported stepping and plantar foot placement were found
- number of movements of each type (LM, NLM) (paraplegic mice [2]; quipazine, treadmill as well as air-stepping, FIG. 15): 8-15
